Assay [1] concerns the target T1, Bcs1 (mBcs1) (Mus musculus, UniProt Q9CZP5).
T1 construct: gene Bcs1l; full length residues 1-418, C-terminal hexa-His tag, expressed in Pichia pastoris, purified in DDM, homo-heptamer; reconstituted in soy polar lipid membranes for HS-AFM
T1 sequence (Q9CZP5 1-418): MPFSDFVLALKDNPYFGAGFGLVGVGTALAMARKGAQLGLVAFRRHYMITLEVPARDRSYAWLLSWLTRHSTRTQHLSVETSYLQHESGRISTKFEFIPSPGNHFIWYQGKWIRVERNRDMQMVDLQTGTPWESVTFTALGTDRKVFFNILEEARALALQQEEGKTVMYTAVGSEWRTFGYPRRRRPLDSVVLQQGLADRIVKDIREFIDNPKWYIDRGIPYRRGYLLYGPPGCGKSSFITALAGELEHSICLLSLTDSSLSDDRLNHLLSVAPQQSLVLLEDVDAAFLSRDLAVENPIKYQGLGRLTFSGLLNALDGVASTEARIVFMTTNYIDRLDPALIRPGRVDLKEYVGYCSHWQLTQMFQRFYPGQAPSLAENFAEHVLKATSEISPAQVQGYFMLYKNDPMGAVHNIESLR
Put plainly: microscale thermophoresis, RED-tris-NTA labelled Bcs1. The class given is binding.

Assay [2] concerns the target T1, Bcs1 (mBcs1). Kind of assay: HS-AFM imaging, probability of AMP-PNP conformation, Hill fit. The assay is classed as binding.
Assay [3] concerns the target T1, Bcs1 (mBcs1). Put plainly: HS-AFM imaging, conformational change on binding. The conditions noted are these: 10 µM ATPγS; reconstituted membranes; 10 mM HEPES pH 7.5, 200 mM NaCl, 2 mM MgCl2; ambient temperature.

The results in this text go back to publication PMC10567702, “A concerted ATPase cycle of the protein transporter AAA-ATPase Bcs1” (Nature Communications, 2023).

`Nc1ncnc2c1ncn2[C@@H]1O[C@H](COP(=O)(O)OP(=O)(O)O)[C@@H](O)[C@H]1O` [ADP] displayed a Kd on Bcs1 (mBcs1) [1] of around 0.5 µM.
The compound `Nc1ncnc2c1ncn2[C@@H]1O[C@H](COP(=O)(O)OP(=O)(O)NP(=O)(O)O)[C@@H](O)[C@H]1O` [AMP-PNP] showed an EC50 on Bcs1 (mBcs1) [2] of around 4 µM.
`Nc1ncnc2c1ncn2[C@@H]1O[C@H](COP(=O)(O)OP(=O)(O)OP(O)(O)=S)[C@@H](O)[C@H]1O` [ATPγS]: the “HS-AFM imaging, conformational change on binding” value on Bcs1 (mBcs1) [3] is listed as “In the presence of ATPγS however, instead of a ring structure, we found a rather flat disk”.

By Kd is commonly meant the equilibrium constant for the complex coming apart. Usually EC50 stands for the concentration at which the effect is half-maximal. Read a low EC50 as a more potent agent.
